Reference: patent publication US20250154141A1 (University of Florida Research Foundation, Incorporated, priority 2021, published 2025)

What was measured:
[1] = target: VCB E3 ligase complex and Bcl-xL (Homo sapiens, UniProt P40337+Q07817); experiment: Ternary complex assay (AlphaLISA); type: binding; conditions: FIG. 5A
Procedure: To detect ternary complex formation induced by the compounds, AIphaLISA assay was used to measure luminescence signals arisen from proximity of Bcl-xL bounded acceptor beads and VHL- or CRBN—bounded donor beads. Briefly, to a 96-well PCR plate, 10 μL of 20 nM 6-His tagged Bcl-xL protein can be mixed with 10 μL of 20 nM GST-tagged VHL complex protein and 10 μL of serially diluted testing compounds. After incubating at room temperature for 30 […], 5 μL of 160 μg/mL Glutathione donor beads (PerkinEImer) was added and the mixture was incubated at dark for 15 min. 5 μL of 160 μg/mL of anti-His acceptor beads was added lastly and the mixture was incubated for an additional 45 min before being transferred to two adjacent wells (17 μL each) of 384-well white OptiPIate (PerkinEImer). The luminescence signals were detected on a Biotek's Synergy Neo2 multi-mode plate reader installed with an AphaScreen filter cube. All reagents were diluted in an assay buffer of 25 mM HEPES, pH 7.5, 100 mM NaCl, 0.1% BSA, and 0.005% tween 20 prior incubation.

[2] = tested on: RS4; 11; experiment: Cell viability assay (MTS) in RS4; 11 cells; type: cell-based; conditions: Homo sapiens, RS4-11; Table 2; 48 hr; MTS; read-out: Anti-Cancer Activity IC50 (48 hr) RS4; 11
Procedure: (§1) Acute lymphoblastic leukemia cells (MOLT-4 and RS4; 11) were incubated with increasing concentrations of Bcl-xL degraders for 48 h. Cell viability was measured by tetrazolium-based MTS assay.

[3] = tested on: MOLT-4; experiment: Cell viability assay (MTS) in MOLT-4 cells; type: cell-based; conditions: Homo sapiens, MOLT-4; Table 2; 48 hr; MTS; read-out: Anti-Cancer Activity IC50 (48 hr) MOLT-4
Procedure: as §1

[4] = target: T1, Bcl-2 (Homo sapiens, UniProt P10415); experiment: Protein degradation assay in human platelets (Western blot), Bcl-2; type: cell-based; design: endogenous in cells; host or cells: human platelets; conditions: FIG. 4, 16 h
Procedure: (§2) Jurkat cells and human platelets were incubated with increasing concentrations of test compounds for 16 h. The cells were harvested and lysed in RIPA lysis buffer supplemented with protease and phosphatase inhibitor cocktails. An equal amount of protein ([…]) was resolved on a pre-cast 4-20% SDS-PAGE gel. Proteins were subsequently transferred to NOVEX PVDF membranes by electrophoresis. The membranes were blocked in blocking buffer (5% non-fat dry milk in TBS-T), and incubated with primary antibodies (at optimized concentrations) overnight at 4° C. After three washings in TBS-T, the membranes were incubated with an appropriate FIRP-conjugated secondary antibody for 1 h at room temperature. After extensive washing for three times, the proteins of interest was detected with ECL western blotting detection reagents and recorded with autoradiography (Pierce Biotech, Rockford, IL, USA). The primary antibodies for Bcl-xL (Cat #2762), Bcl-2 (Cat #2872), Mcl-1 (Cat #5453) and j-actin (Cat #4970) were purchased from Cell Signaling Technology. The relative band intensity was measured using ImageJ software and normalized to β-actin.

[5] = target: T1, Bcl-2; experiment: Protein degradation assay in Jurkat cells (Western blot), Bcl-2; type: cell-based; design: endogenous in cells; host or cells: Jurkat cells
Procedure: as §2

[6] = target: T2, Bcl-xL (Homo sapiens, UniProt Q07817); experiment: Protein degradation assay in Jurkat cells (Western blot), Bcl-xL; type: cell-based; design: endogenous in cells; host or cells: Jurkat cells
Procedure: as §2

[7] = target: T2, Bcl-xL; experiment: Protein degradation assay in human platelets (Western blot), Bcl-xL; type: cell-based; design: endogenous in cells; host or cells: human platelets; conditions: FIG. 4, 16 h
Procedure: as §2

[8] = FIGS. 2-3, increasing concentrations 16 hours, 100 nM for various durations
[9] = FIGS. 2C, 3C, 16 h treatment, wash-off, cultured without compound 0 to 48

T2 sequence (Q07817 whole entry): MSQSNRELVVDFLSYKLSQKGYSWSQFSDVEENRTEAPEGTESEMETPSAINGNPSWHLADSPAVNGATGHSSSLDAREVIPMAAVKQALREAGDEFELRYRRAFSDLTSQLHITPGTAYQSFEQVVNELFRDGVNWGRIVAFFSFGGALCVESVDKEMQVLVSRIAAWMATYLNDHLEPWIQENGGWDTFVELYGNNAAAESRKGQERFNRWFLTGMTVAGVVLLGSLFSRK
T1 sequence (P10415 whole entry): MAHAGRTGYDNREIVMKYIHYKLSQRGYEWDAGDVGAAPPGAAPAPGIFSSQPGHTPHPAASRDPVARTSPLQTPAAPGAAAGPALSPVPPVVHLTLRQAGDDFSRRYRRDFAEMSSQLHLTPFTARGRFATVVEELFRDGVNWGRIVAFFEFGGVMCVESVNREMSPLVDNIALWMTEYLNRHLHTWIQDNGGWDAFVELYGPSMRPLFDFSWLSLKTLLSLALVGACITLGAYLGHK
Sequence of VCB E3 ligase complex and Bcl-xL (Q07817 whole entry): as the sequence (Q07817 whole entry) above
Sequence of VCB E3 ligase complex and Bcl-xL (P40337 whole entry): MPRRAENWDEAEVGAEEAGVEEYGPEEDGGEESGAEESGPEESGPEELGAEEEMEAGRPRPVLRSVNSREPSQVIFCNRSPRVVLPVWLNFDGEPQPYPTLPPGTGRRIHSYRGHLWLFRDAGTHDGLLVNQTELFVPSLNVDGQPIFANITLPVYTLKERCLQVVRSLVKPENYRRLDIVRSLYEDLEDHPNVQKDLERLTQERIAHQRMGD
Sequence of VCB E3 ligase complex and Bcl-xL (Q15370 whole entry partner): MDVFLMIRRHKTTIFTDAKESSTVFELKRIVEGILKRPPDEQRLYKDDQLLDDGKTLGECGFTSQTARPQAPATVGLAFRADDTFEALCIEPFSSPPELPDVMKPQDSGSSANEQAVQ
Sequence of VCB E3 ligase complex and Bcl-xL (Q15369 whole entry partner): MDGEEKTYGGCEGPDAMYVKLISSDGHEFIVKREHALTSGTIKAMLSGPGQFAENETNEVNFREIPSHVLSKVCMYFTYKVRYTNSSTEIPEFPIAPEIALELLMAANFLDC

**Q.** Which “ternary complex formation with the VCB E3 ligase complex and Bcl-xL” value [1] does the source give for `Cc1ncsc1-c1ccc([C@H](C)NC(=O)[C@@H]2C[C@@H](O)CN2C(=O)[C@@H](NC(=O)CN2CCN(CC(=O)N3CCN(C[C@]4(C)CCC(c5ccc(Cl)cc5)=C(CN5CCN(c6ccc(C(=O)NS(=O)(=O)c7ccc(N[C@H](CCN8CCCOCC8)CSc8ccccc8)c(S(=O)(=O)C(F)(F)F)c7)cc6)CC5)C4)CC3)CC2)C(C)(C)C)cc1` [Compound 77] here?
**A.** Its value is “formed ternary complexes”.

**Q.** And the IC50 [2]?
**A.** The IC50 was < 20 nM.

**Q.** And the IC50 [3]?
**A.** The IC50 was < 20 nM.

**Q.** What about the “Bcl-2 expression levels in human platelets” value [4] of the same compound?
**A.** Its value is “do not affect”.

**Q.** And the “degradation of Bcl-2 (immunoblot)” value [5, 8]?
**A.** Its value is “dose- and time-dependently degraded”.

**Q.** And the “duration of Bcl-2 degradation after wash-off” value [5, 9]?
**A.** Its value is “long-lasting”.

**Q.** And the “degradation of Bcl-xL (immunoblot)” value [6, 8]?
**A.** Its value is “dose- and time-dependently degraded”.

**Q.** What about the “duration of Bcl-xL degradation after wash-off” value [6, 9] of the same compound?
**A.** Its value is “long-lasting”.

**Q.** What about the “Bcl-xL expression levels in human platelets” value [7] of the same compound?
**A.** Its value is “do not affect”.
